In patent US20210308101A1, “METHODS OF TREATING FIBROMYALGIA” (Aptinyx Inc., priority 2019, published 2021):

Columns and labels:
Assay type in all cases: in vivo, human
[1] = tested on: subjects with fibromyalgia; assay: Hospital Anxiety and Depression Scale (HADS); conditions: Weeks 4 and 6
Excerpt: As used herein, “HADS” is Hospital Anxiety and Depression Scale. The HADS is a self-reported screening tool for anxiety and depression in non-psychiatric clinical populations. The scale consists of 14 items (7 each for anxiety and depression), each rated on a 4-point scale ranging from 0 to 3 (i.e. 0=not at all; 3=most of the time). The categorical responses are slightly different for some of the questions, but the numeric scores remained the same from 0 to 3. Responses were based on the relative frequency of symptoms over the preceding week. […] The individual imputed missing scores used the specific subscale mean score and were rounded off to the nearest whole number. If an individual subscale score was missing 4 or more items, then that subscale score was set to missing. A total score adding the anxiety and depression subscale scores for HADS was not calculated. Possible scores range from 0 to 21 for each subscale. […]
The HADS assessment was collected and analyzed at visits Screening, Day 1, Week 2, Week 4, Week 6, and Follow-up (Week 7). […] Additionally, the treatment group comparisons were analyzed using the paired t-test and nonparametric Wilcoxon signed-rank test.
The 4 interpreted categorical values for each subscale were summarized in a frequency distribution table. All HADS data collected and the calculated subscale scores at each visit were presented in a subject listing.

[2] = tested on: subjects with fibromyalgia; assay: QST: cuff algometry
Experimental: Large volume, deep tissue pressure sensitivity was assessed by cuff algometry. Calibrated cuff pain stimuli were delivered to the gastrocnemius area of the lower leg using a validated MRI-compatible cuff pain device. This system included an air compressor, computerized pressure controller, and a 13.5 cm×82.5 cm Velcro-adjusted pressure cuff (similar to a blood pressure cuff). Subjects first received an ascending series of cuff pressures, starting at 20 mmHg and increasing in 20-mmHg steps (10- to 14-second duration pressures, 20-second interstimulus interval) to tolerance or a maximum of 400 mmHg. Each pressure was rated after deflation on a 0 to 100 NRS. These pain ratings were used to interpolate a series of 9 tolerable cuff pressures that were delivered in pseudo-randomized order and rated individually. […] Curves were constructed for each participant and used for analysis of drug and placebo effects. An abbreviated form of cuff algometry was performed during fMRI as an evoked pain stimulus.
(§1) QST data were analyzed at the University of Michigan CPFRC. Dependent variables were the MAST derived outcomes (Pain50, pressure pain threshold, pain tolerance, and pain ratings at 2 kg/cm2), algometry-derived pressure pain thresholds (mean of three trials) at each anatomical site, average cuff intensity ratings (mean of ratings at all stimulus levels during the ascending or random sequences), and average visual task unpleasantness and brightness intensity ratings (mean of ratings at all stimulus levels). Practice data were not analyzed. Overall pain intensity and unpleasantness NRS scores as well as stimulus response curves for each test were assessed during post hoc analyses. Data points displaying measurement artefacts, including device malfunction or user error, were set to missing. Single subject QST variables were analyzed using paired t-tests and/or nonparametric Wilcoxon signed-rank tests in SPSS or R.

[3] = tested on: subjects with fibromyalgia; assay: QST: visual stimulation task
Excerpt: To measure non-somatic sensitivity, a series of nonpainful, yet aversive, visual stimuli were presented to each subject. This 10-minute task consisted of 2 different visual stimuli presented in an alternating block design. The control stimulus was a solid color background, whereas experimental stimulus was a flashing annulus checkerboard. These 2 stimuli were interleaved into independent 8- to 30-second blocks throughout the duration of the task. Subjects viewed the stimuli on a calibrated liquid crystal display computer screen designed for high resolution image presentation. Stimuli were presented at varying brightness levels and/or color patterns, and each stimulus presentation was rated on scales of sensory intensity and unpleasantness. […] A redacted version of this task was administered during fMRI.
as §1

[4] = tested on: pain-evoked brain activity; assay: fMRI of evoked cuff pain, BOLD activations
Excerpt: As used herein, “Functional Magnetic Resonance Imaging of Evoked Pain and Visual Stimulation” refers to the following procedure. During evoked pain and visual stimulation fMRI paradigms, participants were lying in the scanner as they received either pressure stimulation to their calf muscle or they experienced an unpleasant visual stimulus. For both pain and visual stimulation, whole-brain Blood Oxygenation Level Dependent (BOLD) functional images were acquired.
Each subject underwent a 12-minute block design scan, during which 3 cuff pressure levels (2 equal pressures=15 to 30 and 100 to 115 mmHg; and 1 equal pain=40 to 60/100 numerical rating scale [NRS] units) were applied to the left calf […] using the pressure cuff device in pseudo-random order for a total of 12 pressure stimulations. Pressure levels for each subject were determined during the QST assessment. Each pressure stimulus was applied for 14 seconds. Prior to each pressure stimulus, a 4-second visual cue was presented to signal upcoming cuff pressure to limit any stimulus-onset startle reflex. Subjects' head motion was minimized using foam pads around the head, and a strap secured across the forehead.
As with functional connectivity analyses, pre-processing of images occurs using SPM12. The first 5 images were discarded from the data set and not used for further analysis in order to correct for equilibration effects. Pre-processing steps included: physio-correction, motion correction, coregistration, normalization, and smoothing (FWHM 6 or 8 mm). First level analyses were performed using the general linear model (GLM) implemented in SPM12. Motion parameters from re-alignment were modelled as regressors of no interest. Pain and visual blocks were convolved with a canonical hemodynamic response function and contrasted with rest blocks of no stimulation. These activation maps were then passed up to group-level analyses comparing differences in activations at the analysis visits of interest in SPM. Resulting maps were set at an uncorrected voxel threshold of p<0.001, with p<0.05 FDR or FWE significance corrected for multiple comparisons. The primary analyses were a paired sample t-tests between placebo images and NYX-2925 images (either 20 or 200 mg).
Several analyses were conducted with the fMRI resting state and task data. Results were assessed by: 1) a primary analysis, where a finding was deemed significant with a corrected cluster level p<0.05, derived from an uncorrected voxel-wise p<0.001, and 2) an exploratory analysis, where a finding was deemed significant with an uncorrected voxel-wise p<0.005 and having a cluster greater than or equal to 80 contiguous voxels. Results that met significance in the primary analyses had connectivity values extracted and imported into SPSS v25 where paired t-tests were performed to assess for potential outliers contributing to the finding. Remaining data were then correlated with clinical measures using parametric bivariate Pearson correlations. Results were deemed significant at p<0.05.

In the case of `CC(C)C(=O)N1CCC[C@]12CN([C@H](C(N)=O)[C@@H](C)O)C2=O` [NYX-2925, (2S, 3R)-3-hydroxy-2-((R)-5-isobutyryl-1-oxo-2,5-diazaspiro[3.4]octan-2-yl)butanamide], the “HADS Total Anxiety score, mean changes from Week 2 (placebo)” value [1] is reported as “No statistically significant mean changes”, the “HADS Total Depression score, mean changes from Week 2 (placebo)” value [1] is reported as “No statistically significant mean changes” and the “mean pain intensity rating of the Cuff Random paradigm” value ([2]; NYX-2925 20 mg relative to baseline, p=0.073) is reported as “marginally reduced”. For the same molecule, the “Cuff Random Pain50 threshold” value ([2]; NYX-2925 20 mg, baseline 151.89±110.64, p=0.031) was 193.00±128.16 mmHg, the “Cuff Random Pain50 threshold” value ([2]; NYX-2925 200 mg, baseline 157.70±110.78, p=0.038) was 209.80±132.51 mmHg and the “cuff algometry procedure overall unpleasantness rating” value ([2]; Week 7 follow-up, after cessation of NYX-2925, p=0.040 vs 200 mg) was 30.00±22.82. The “cuff algometry procedure overall unpleasantness rating” value ([2]; treatment with NYX-2925 200 mg (Week 6)) was 25.00±19.15, the “overall visual task unpleasantness” value ([3]; NYX-2925 200 mg (Week 6)) was 42.31±29.20 and the “rating of unpleasantness evoked by the brightest visual stimulus” value ([3]; NYX-2925 200 mg (Week 6)) was 59.97±35.46 NRS. For the same molecule, the “rating of unpleasantness evoked by the brightest visual stimulus” value ([3]; Week 7 follow-up, p=0.037 vs 200 mg) was 53.13±36.88 NRS, the “overall visual task unpleasantness” value ([3]; Week 7 follow-up, p=0.040 vs 200 mg) was 33.85±28.07 and the “pain-evoked brain activity in brain imaging, subject 1” value ([4]; 200 mg dose vs placebo, FIGS. 4A, 4B) was “reduced pain-related brain activity”. For the same molecule, the “pain-evoked brain activity in brain imaging, subject 2” value ([4]; 200 mg dose vs placebo, FIGS. 4C, 4D) was “reduction in pain-related brain activity”, the “BOLD activations in right mid cingulate cortex and left primary somatosensory cortex/supplementary motor area” value ([4]; exploratory, placebo visit to NYX-2925 20 mg visit) was “decreased” and the “BOLD activations in right putamen/insula, bilateral primary somatosensory/cingulate cortex, left putamen, left posterior insula” value ([4]; exploratory, placebo visit to NYX-2925 200 mg visit) was “decreased”. For the same molecule, the “BOLD activations, evoked cuff pain task (Pain50 pressure > rest)” value ([4]; primary analyses) was “No significant BOLD activations”.
